For assay [1], the target named is T1, Sentrin-specific protease 1 (Homo sapiens, UniProt Q9P0U3).
T1 sequence (Q9P0U3 whole entry): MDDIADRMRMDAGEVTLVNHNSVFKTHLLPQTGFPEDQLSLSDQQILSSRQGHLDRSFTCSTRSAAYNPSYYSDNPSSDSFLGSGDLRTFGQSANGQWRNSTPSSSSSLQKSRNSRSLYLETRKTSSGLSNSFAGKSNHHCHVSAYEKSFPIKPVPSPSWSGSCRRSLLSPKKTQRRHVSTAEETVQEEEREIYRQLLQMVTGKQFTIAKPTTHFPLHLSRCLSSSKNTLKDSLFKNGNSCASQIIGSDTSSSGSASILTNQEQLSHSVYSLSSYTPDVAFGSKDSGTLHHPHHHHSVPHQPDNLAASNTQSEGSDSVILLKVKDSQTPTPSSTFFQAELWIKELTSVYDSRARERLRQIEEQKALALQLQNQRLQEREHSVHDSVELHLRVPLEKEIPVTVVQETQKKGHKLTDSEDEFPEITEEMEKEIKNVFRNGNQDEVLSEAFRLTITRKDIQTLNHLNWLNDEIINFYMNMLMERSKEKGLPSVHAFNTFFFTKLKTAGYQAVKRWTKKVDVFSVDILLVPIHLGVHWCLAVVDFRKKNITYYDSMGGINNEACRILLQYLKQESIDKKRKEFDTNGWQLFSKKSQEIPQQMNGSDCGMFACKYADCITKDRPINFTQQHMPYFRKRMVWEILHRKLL
The assay can be described thus: Dose response confirmation of small molecule inhibitors of the catalytic domain of the SUMO protease, SENP1 in a FRET assay. It is filed as functional. As to conditions: read-out: IC50_Mean.

Assay [2] deals with Intestinal-type alkaline phosphatase (Homo sapiens, UniProt P09923). The assay can be described thus: human intestinal alkaline phosphatase activators, dose response, biochemical, luminescence, uHTS hits (AID 463120). The assay is classed as functional.
In assay [3] the target is T1, Sentrin-specific protease 1. Nature of the assay: potency of human SENP1 inhibitors, dose response, biochemical, kinetic FRET (AID 651697). It is filed as functional. Particulars: read-out: IC50_Mean.
Assay [4] is described as follows: Western Blot Cell-Based Dose Response to Identify Inhibitors of […] Alpha-Synuclein Translation in H4 Cells. [Related pubchem assays: 1827 (Project Summary), 1813 (Primary HTS)]. (A western blot detects proteins with antibodies after separation by electrophoresis.)
Assay [5] is described as follows: ELISA Cell-Based Dose Response to Identify Inhibitors of Alpha-Synuclein Translation in SH-SY5Y Cells. [Related pubchem assays: 1813 (Primary HTS), 1827 (Project Summary)]. The assay is classed as functional. In general terms: In an ELISA, binding on a coated surface is turned into a signal by an enzyme label.
Assay [6] is described as follows: Luminescence Cell-Based Dose Response HTS to Identify Inhibitors of 5'UTR Stem-Loop Driven Prion Protein mRNA Translation in H4 Neuroglioblastoma Cells. [Related pubchem assays: 1827 (Project Summary), 1813 (Primary HTS)]. It is filed as functional.
The target in assay [7] is T2, Heat shock factor protein 1 (Mus musculus, UniProt P38532).
T2 sequence (P38532 whole entry): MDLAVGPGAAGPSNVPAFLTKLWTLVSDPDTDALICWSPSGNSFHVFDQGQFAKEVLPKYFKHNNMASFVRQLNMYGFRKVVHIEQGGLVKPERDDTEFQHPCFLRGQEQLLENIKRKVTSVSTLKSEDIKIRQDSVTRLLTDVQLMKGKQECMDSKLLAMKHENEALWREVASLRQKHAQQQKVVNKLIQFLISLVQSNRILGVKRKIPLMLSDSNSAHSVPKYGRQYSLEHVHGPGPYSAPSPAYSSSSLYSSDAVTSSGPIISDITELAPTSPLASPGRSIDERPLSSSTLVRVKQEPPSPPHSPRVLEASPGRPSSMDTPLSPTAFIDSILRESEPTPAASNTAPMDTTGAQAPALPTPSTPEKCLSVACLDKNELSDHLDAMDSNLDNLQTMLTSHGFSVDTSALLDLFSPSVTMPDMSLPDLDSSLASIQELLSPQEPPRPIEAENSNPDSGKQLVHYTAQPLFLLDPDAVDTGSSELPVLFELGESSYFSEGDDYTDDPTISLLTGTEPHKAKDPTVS
The assay can be described thus: HSF1 potentiators in luciferase reporter cells, confirmation, cell-based, NIH3T3, luminescence, dose retest (AID 435004).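 Further: stress induced by proteasome inhibitor MG132 added 30 min after compound; luciferase reporter driven by HSF1 response element in NIH3T3 cells; actives raise luminescence as potentiators of the MG132 stress response.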 The assay is classed as functional. A general note: A reporter such as luciferase makes a cellular process visible.

Assay [8] is described as follows: Luminescence Cell-Based Dose Retest to Confirm Activators of 5'UTR Stem-Loop Driven Alpha-Synuclein mRNA Translation in H4 Neuroglioblastoma Cells. [Related pubchem assays (depositor defined):AID1813, AID1829]. It is filed as functional.
Assay [9] in a line: inhibitors of SNCA 5'UTR-driven reporter translation, confirmation, H4 neuroglioma cells, luminescence (AID 1988). The assay is classed as functional, cell-based.
A short description of assay [10]: Luminescence Cell-Based Dose HTS Response to Identify Inhibitors of 5'UTR Stem-Loop Driven Prion Protein mRNA Translation in H4-C Neuroglioblastoma Cells. [Related pubchem assays (depositor defined):AID1814, AID1827]. It is filed as functional.
Assay [11] can be described thus: inhibitors of firefly luciferase expression or activity, dose response, H4 neuroglioma cells, luminescence (AID 1990). It is filed as functional, cell-based.
A short description of assay [12]: Luminescence Cell-Based Dose Confirmation HTS to Identify Inhibitors of 5'UTR Stem-Loop Driven Alpha-Synuclein mRNA Translation in H4 Neuroglioblastoma Cells. [Related pubchem assays: 1827 (Project Summary), 1813 (Primary HTS)]. The assay is classed as functional.
Assay [13] in a line: Luminescence Cell-Based Dose Response HTS to Identify Inhibitors of Luciferase Translation or Activity in H4-C Neuroglioblastoma Cells. [Related pubchem assays: 1813 (Primary HTS), 1827 (Project Summary)]. The assay is classed as functional.
Assay [14] concerns the target T3, Runt-related transcription factor 1/Core-binding factor subunit beta (Homo sapiens, UniProt Q01196+Q13951). Nature of the assay: inhibitors of RUNX1 Runt–CBFb-SMMHC binding, primary screen, biochemical, FRET, Cerulean-Runt, Venus-CBFb-SMMHC, uHTS (AID 1434).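 Further: partner is the CBFb-SMMHC leukemia fusion protein rather than wild-type CBFb.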 It is filed as protein assay.
For assay [15], the target named is T3, Runt-related transcription factor 1/Core-binding factor subunit beta. The assay can be described thus: inhibitors of RUNX1 Runt–CBFb-SMMHC binding, biochemical, TR-FRET (AID 1438). The assay is classed as protein assay.
Assay [16] addresses T4, Cannabinoid receptor 1 (Homo sapiens, UniProt P21554). The assay can be described thus: SAR analysis of antagonists of the Cannabinoid Receptor 1 using an Image-Based Assay - Set 3. [Related pubchem assays (depositor defined):AID1961, AID1965]. The assay is classed as functional.
Assay [17] has as its target T5, G-protein coupled receptor 35 (Homo sapiens, UniProt Q9HC97). Nature of the assay: SAR analysis of Antagonists of the GPR35 Receptor using an Image-Based Assay - Set 4. [Related pubchem assays (depositor defined):[…]]. The assay is classed as functional.
The target of assay [18] is T6, Cannabinoid receptor 2 (Homo sapiens, UniProt P34972). The assay can be described thus: SAR analysis of agonists of the Cannabinoid Receptor 2 using an Image-Based Assay - Set 2. [Related pubchem assays (depositor defined):AID1961, AID1965]. It is filed as functional.
In assay [19] the target is G-protein coupled receptor 55 (Homo sapiens, UniProt Q9Y2T6). Nature of the assay: SAR analysis of selective Agonists of GPR55 using an Image-Based Assay - Set 2. [Related pubchem assays (depositor defined):AID1961, AID1965]. The assay is classed as functional.
The target of assay [20] is T6, Cannabinoid receptor 2. The assay can be described thus: SAR analysis of antagonists of the Cannabinoid Receptor 2 using an Image-Based Assay - Set 2. [Related pubchem assays (depositor defined):AID1961, AID1965]. It is filed as functional.
Assay [21] has as its target T5, G-protein coupled receptor 35. The assay can be described thus: SAR analysis of Agonists of the GPR35 Receptor using an Image-Based Assay - Set 3. [Related pubchem assays (depositor defined):AID1961, AID1965]. It is filed as functional.
Assay [22] deals with T4, Cannabinoid receptor 1. The assay can be described thus: SAR analysis of agonists of the Cannabinoid Receptor 1 using an Image-Based Assay - Set 3. [Related pubchem assays (depositor defined):AID1961, AID1965]. It is filed as functional.
Assay [23] addresses Voltage-dependent T-type calcium channel subunit alpha-1H (Homo sapiens, UniProt O95180). Nature of the assay: Cav3.2 T-type channel inhibitors, synthesized analogs, SAR follow-up, cell-based, synthetic library set 2, HEK293 HH8, Fluo-4 (AID 493023). It is filed as functional.
Assay [24] has as its target T7, Sphingosine 1-phosphate receptor 4 (Homo sapiens, UniProt O95977).
T7 sequence (O95977 whole entry): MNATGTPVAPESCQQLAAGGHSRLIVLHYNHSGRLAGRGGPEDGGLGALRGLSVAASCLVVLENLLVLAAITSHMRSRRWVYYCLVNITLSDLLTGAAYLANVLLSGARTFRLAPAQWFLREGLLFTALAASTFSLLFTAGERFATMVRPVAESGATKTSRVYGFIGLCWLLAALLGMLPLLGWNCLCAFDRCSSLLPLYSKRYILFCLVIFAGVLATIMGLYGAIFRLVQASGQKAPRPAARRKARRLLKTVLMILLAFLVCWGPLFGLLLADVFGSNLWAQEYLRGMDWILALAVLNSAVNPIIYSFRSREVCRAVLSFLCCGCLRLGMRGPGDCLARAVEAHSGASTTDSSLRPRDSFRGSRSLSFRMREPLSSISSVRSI
Nature of the assay: Late-stage fluorescence dose response cell-based assay to identify agonists of the Sphingosine 1-Phosphate Receptor 4 (S1P4): purchased compounds EC50. [Related pubchem assays (depositor defined):AID1509, AID1523, AID1563, AID1686, AID1701, AID1801]. The assay is classed as functional.

Active and inactive are the calls of the source. Where only a bound is given, the exact number is not on record here.

Experimental findings from ChEMBL document CHEMBL1201862, “PubChem BioAssay data set” (2004) are described below.

Usually EC50 stands for the midpoint of the concentration-response curve.

T3 sequence (Q01196 whole entry, the tested form may be a part): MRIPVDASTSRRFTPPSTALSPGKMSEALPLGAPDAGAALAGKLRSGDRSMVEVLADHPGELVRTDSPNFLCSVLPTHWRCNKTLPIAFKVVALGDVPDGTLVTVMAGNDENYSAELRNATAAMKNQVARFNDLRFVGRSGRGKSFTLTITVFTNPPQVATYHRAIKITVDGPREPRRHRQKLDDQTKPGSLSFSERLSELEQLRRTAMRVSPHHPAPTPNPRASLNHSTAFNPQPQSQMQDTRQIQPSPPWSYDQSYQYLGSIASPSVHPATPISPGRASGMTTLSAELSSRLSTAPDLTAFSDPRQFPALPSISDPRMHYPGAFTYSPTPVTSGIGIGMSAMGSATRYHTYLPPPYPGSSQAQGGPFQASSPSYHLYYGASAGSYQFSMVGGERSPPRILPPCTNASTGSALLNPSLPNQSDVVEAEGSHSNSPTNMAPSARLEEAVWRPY
T3 sequence (Q13951 whole entry, the tested form may be a part): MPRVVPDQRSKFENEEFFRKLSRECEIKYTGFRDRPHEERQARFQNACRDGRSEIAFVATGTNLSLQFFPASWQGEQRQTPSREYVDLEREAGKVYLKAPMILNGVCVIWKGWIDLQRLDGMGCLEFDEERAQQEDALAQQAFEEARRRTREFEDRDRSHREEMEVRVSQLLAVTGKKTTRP
T4 sequence (P21554 whole entry): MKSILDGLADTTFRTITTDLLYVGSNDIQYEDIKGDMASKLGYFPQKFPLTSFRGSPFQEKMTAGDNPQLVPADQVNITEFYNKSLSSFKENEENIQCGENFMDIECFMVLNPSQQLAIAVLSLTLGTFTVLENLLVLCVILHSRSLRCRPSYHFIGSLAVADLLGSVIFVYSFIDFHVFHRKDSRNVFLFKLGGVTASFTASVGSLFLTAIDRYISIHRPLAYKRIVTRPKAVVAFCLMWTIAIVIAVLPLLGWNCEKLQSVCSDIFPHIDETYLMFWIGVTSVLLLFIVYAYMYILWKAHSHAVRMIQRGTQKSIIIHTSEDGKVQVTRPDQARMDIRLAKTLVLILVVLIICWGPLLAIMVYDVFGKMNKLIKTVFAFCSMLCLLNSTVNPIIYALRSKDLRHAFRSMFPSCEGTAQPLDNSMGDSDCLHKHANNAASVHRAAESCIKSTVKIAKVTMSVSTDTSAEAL
T6 sequence (P34972 whole entry): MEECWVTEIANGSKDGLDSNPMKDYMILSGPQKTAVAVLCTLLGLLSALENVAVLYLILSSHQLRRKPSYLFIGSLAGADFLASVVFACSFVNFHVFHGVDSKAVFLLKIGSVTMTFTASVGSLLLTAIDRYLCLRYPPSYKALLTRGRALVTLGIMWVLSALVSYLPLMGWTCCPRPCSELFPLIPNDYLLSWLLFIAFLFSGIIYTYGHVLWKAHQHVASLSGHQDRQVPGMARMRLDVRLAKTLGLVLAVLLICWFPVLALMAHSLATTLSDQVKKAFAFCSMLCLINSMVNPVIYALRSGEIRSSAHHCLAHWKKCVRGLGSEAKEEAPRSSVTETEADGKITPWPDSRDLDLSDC
T5 sequence (Q9HC97 whole entry): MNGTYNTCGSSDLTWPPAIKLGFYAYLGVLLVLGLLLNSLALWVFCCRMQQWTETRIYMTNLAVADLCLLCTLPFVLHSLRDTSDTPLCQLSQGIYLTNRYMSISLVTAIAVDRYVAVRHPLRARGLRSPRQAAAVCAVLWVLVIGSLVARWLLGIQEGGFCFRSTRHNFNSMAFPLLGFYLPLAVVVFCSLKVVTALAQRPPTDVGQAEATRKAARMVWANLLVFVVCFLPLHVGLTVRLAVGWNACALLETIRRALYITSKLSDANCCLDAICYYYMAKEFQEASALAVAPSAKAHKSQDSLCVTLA
Voltage-dependent T-type calcium channel subunit alpha-1H, sequence (O95180 whole entry): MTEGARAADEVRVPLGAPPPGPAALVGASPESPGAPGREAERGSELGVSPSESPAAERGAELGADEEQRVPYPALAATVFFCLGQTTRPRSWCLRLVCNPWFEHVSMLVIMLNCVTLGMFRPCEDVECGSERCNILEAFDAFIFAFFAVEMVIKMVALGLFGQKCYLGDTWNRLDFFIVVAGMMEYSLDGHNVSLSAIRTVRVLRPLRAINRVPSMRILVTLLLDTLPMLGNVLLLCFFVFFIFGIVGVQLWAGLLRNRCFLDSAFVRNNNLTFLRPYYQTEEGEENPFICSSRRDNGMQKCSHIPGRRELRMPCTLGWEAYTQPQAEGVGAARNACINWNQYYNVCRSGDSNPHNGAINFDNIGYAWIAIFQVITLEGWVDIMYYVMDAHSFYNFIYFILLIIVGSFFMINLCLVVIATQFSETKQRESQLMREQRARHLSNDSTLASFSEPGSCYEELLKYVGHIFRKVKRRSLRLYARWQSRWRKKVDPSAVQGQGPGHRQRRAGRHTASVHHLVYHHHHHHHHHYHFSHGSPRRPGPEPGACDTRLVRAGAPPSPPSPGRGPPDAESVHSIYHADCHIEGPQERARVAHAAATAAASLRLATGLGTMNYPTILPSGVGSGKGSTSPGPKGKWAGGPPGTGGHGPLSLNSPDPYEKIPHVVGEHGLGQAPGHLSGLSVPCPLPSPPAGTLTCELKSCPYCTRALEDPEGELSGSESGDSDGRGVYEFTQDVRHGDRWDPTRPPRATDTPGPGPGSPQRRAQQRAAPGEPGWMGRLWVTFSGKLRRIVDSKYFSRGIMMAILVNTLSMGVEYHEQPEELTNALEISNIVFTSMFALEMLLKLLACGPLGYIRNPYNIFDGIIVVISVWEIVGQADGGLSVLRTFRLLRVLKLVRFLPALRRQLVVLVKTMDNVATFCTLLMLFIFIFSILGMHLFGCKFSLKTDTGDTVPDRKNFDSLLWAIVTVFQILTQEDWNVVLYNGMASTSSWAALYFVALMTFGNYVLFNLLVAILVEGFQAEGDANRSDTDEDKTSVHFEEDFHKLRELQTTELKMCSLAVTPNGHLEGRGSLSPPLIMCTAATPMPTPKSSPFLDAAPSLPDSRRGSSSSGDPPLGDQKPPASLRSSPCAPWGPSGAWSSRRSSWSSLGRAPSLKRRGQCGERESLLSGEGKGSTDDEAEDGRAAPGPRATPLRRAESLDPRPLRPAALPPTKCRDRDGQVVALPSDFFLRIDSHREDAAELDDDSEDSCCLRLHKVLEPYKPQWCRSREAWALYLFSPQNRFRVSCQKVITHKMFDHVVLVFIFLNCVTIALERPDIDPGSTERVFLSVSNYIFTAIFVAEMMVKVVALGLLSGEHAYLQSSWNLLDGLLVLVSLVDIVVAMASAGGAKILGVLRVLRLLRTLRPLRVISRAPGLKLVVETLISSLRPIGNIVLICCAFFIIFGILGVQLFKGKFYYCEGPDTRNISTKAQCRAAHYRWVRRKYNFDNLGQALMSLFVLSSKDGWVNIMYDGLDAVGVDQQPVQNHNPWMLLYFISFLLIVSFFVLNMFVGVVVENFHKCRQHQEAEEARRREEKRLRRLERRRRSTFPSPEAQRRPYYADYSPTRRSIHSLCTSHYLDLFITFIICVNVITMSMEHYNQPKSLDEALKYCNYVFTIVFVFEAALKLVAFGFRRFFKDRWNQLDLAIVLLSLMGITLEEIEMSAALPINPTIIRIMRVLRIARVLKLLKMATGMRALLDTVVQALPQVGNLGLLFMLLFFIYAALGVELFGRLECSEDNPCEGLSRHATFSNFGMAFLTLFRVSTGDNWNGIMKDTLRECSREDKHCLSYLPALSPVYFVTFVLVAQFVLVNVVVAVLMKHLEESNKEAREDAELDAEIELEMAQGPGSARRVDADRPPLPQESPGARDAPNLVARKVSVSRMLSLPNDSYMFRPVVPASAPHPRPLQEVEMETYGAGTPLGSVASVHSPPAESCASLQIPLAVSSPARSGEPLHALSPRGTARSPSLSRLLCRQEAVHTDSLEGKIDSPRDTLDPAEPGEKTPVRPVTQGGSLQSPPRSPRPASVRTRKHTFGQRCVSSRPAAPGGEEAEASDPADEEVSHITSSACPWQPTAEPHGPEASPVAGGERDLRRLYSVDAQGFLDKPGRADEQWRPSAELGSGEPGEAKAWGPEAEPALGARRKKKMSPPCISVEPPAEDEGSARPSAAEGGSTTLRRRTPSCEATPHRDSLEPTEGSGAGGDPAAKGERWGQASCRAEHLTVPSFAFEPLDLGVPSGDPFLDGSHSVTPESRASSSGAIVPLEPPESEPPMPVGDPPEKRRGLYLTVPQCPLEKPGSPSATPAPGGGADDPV
Intestinal-type alkaline phosphatase, sequence (P09923 whole entry): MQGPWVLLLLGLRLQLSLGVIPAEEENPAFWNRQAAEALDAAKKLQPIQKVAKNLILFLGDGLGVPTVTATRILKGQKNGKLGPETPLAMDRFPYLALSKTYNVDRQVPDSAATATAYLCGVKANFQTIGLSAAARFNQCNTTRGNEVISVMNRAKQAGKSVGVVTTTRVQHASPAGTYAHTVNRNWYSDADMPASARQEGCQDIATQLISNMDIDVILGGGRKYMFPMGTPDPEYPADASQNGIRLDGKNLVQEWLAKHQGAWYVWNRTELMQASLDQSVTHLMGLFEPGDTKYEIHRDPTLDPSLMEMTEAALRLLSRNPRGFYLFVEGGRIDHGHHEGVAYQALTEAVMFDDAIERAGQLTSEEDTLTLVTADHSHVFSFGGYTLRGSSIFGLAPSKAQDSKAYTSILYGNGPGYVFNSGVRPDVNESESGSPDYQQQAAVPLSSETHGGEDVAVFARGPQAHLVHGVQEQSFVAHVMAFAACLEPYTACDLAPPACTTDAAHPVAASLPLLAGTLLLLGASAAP
G-protein coupled receptor 55, sequence (Q9Y2T6 whole entry): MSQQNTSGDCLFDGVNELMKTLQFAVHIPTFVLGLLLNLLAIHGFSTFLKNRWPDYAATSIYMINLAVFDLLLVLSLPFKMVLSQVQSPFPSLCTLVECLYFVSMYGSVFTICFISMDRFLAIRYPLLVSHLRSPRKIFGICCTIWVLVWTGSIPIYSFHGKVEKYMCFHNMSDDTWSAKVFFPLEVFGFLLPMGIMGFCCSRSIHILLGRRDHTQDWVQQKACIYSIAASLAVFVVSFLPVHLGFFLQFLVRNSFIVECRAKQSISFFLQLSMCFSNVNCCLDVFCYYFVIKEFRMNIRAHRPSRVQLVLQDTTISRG

`O=C(NNc1nc2c(F)cccc2s1)c1cc(=O)c2ccccc2o1`: the IC50 was 7.06 µM (active) in assay [1] and 6.67 µM (active) in assay [3]. Besides, in assay [2], the EC50 was 10.3 µM (active).
On to `CN(C)c1nc(N)nc(CSc2nnnn2-c2cccc3ccccc23)n1`, for which the EC50 in [4] was < 1 µM (active); in assay [5] it was < 0.006 µM (active); in [6] it was > 120 µM (not active); in [7], > 260 µM (inactive); in [8], 1.81 µM (inconclusive); in assay [9], 3.5 µM (active). For the same compound, the EC50 in assay [10] was > 195 µM (inactive); in assay [11], > 120 µM (not active); in [12] it was 1.81 µM (active); in assay [13], > 195 µM (not active).
As to `COC(=O)C1=C(CSc2nc3c(cc2C#N)CN(C)CC3)OC(N)=C(C#N)C1c1ccccc1F` (centres undefined), the IC50 in assay [14] is > 100 µM (inactive); in assay [15], 60.9 µM (inactive).
With `Cc1ccc(-c2csc(NC(=O)CSc3nnc4cc(C)c5ccccc5n34)n2)cc1`, the IC50 (at Cannabinoid receptor 1 [16]; in assay [17]; on Cannabinoid receptor 2 [20]) was > 32 µM (inactive) each time. Moreover, the EC50 at Cannabinoid receptor 2 [18] was > 32 µM (inactive); in assay [19], 11.5 µM (inactive); in assay [21], > 32 µM (inactive); on Cannabinoid receptor 1 [22], > 32 µM (inactive).
Consider `O=C(N[C@H]1CCCN(Cc2ccccc2)C1)c1cc(Cl)cc(Cl)c1`, for which, in [23], the EC50 was 10 µM (active).
For the compound `Cc1ccc(OCC(=O)Nc2cccc(Cl)c2)c([N+](=O)[O-])n1`, in [24], the EC50 was > 50 µM (inactive).
